Measurements from ChEMBL document CHEMBL1147396, “A new antimalarial quassinoid from Simaba guianensis” (J Nat Prod, 1993).
Converted amounts (≈) assume the structure as drawn.

Columns and labels:
Plasmodium falciparum [1] = test: Antimalarial activity against mefloquine-resistant Plasmodium falciparum D6 (Sierra Leone) after 24 to 60 hrs by [G-H3]hypoxanthine uptake; type: functional, organism-based
Plasmodium falciparum [2] = test: Antimalarial activity against chloroquine-resistant Plasmodium falciparum Indochina W2 after 24 to 60 hrs by [G-H3]hypoxanthine uptake; type: functional, organism-based

Row | Structure (SMILES) | IC50 (Plasmodium falciparum [1]) [ng/mL] | IC50 (Plasmodium falciparum [2]) [ng/mL]
1 | C[C@@H]1CC[C@H]2[C@@H](C)C(=O)O[C@@H]3O[C@@]4(C)CC[C@@H]1[C@]32OO4 [ARTEMISININ] | 2.1 (≈ 7.44 nM) | –
2 | CC(C)=CC(=O)O[C@H]1C(=O)O[C@@H]2C[C@H]3C(C)=CC(=O)[C@@H](O)[C@]3(C)[C@H]3[C@@H](O)[C@H](O)[C@]4(C)OC[C@]32[C@@H]14 [GUTOLACTONE] | 4.1 (≈ 8.6 nM) | 4 (≈ 8.39 nM)
3 | OC(c1cc(C(F)(F)F)nc2c(C(F)(F)F)cccc12)C1CCCCN1 (configuration not stated) [MEFLOQUINE] | – | 1.5 (≈ 3.96 nM)
4 | C=C[C@H]1CN2CC[C@H]1C[C@H]2[C@H](O)c1ccnc2ccc(OC)cc12 [QUININE] | – | 68.6 (≈ 211 nM)
5 | CC[C@@H](C)C(=O)O[C@H]1C(=O)O[C@@H]2C[C@H]3C(C)=CC(=O)[C@@H](O)[C@]3(C)[C@H]3[C@@H](O)[C@H](O)[C@]4(C)OC[C@]32[C@@H]14 [SIMALIKALACTONE D] | 1.5 (≈ 3.13 nM) | 1.6 (≈ 3.34 nM)
